This is an account of results in article PMC6721227, “Insight into the PTP1B Inhibitory Activity of Arylbenzofurans: An In Vitro and In Silico Study” (Molecules, 2019).

Experiment [1] has as its system PTP1B. Further details: method as in PMID 15258570. Conditions: allosteric inhibitor of PTP1B; cited from earlier work.
The target in experiment [2] is T1, Protein tyrosine phosphatase 1B (PTP1B, human recombinant) (Homo sapiens, UniProt P18031).
T1 construct: purchased Biomol International LP (Plymouth Meeting, PA, USA)
T1 sequence (P18031 1-435): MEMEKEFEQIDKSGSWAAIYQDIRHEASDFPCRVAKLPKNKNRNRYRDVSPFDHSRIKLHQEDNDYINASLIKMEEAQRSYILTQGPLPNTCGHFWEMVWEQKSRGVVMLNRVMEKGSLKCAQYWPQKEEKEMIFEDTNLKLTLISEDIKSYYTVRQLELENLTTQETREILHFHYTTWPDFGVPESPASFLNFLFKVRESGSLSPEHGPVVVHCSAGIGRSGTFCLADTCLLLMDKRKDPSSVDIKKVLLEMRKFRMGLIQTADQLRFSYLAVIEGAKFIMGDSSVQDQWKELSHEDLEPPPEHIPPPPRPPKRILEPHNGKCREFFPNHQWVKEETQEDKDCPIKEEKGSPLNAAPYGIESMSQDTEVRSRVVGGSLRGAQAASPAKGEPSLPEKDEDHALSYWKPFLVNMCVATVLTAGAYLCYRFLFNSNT
In words: Enzyme kinetic analysis (Lineweaver-Burk and Dixon plots). In kind it is biochemical. The note with it: for Ki: determined by Dixon plot; for Inhibition Type: determined by Lineweaver-Burk plot. An excerpt:
Here, we employed Lineweaver-Burk and Dixon plots to determine the inhibition type and inhibition constant (Ki value) for each compound (Figure 2, Table 1).
(§1) Ethylenediaminetetraacetic acid, p-nitrophenyl phosphate (pNPP), and dimethylsulfoxide were purchased from Sigma-Aldrich Co. (St. Louis, MO, USA). Protein tyrosine phosphatase 1B (PTP1B, human recombinant) and dithiothreitol (DTT) were purchased from Biomol® International LP (Plymouth Meeting, PA, USA) and Bio-Rad Laboratories (Hercules, CA, USA), respectively. All chemicals and solvents used in the isolation and enzyme assays were of reagent grade and were purchased from commercial sources. TLC were performed on a precoated Merck Kiesel gel 60 F254 plates (20 × 20 cm, 0.25 mm) and RP-18 F254S plates (5 × 10 cm) (Merck, Darmstadt, Germany).
The kinetic parameters were determined using Lineweaver-Burk double-reciprocal plots and the Dixon plot method at increasing substrate and compound concentrations. All measurements were measured in triplicate, and Sigma Plot 12.0 (SPCC Inc., Chicago, IL, USA) was used to calculate the experimental parameters.

In experiment [3] the target is T1, Protein tyrosine phosphatase 1B (PTP1B, human recombinant). In words: PTP1B inhibitory assay (inhibition of pNPP hydrolysis catalyzed by PTP1B). In kind it is biochemical.
Description: as §1
Inhibition of pNPP hydrolysis catalyzed by PTP1B was carried out by the method as described but with slight modification.

“Also recorded” adds a separate entry of the source.

A word on the IC50: it is the concentration that gives 50% inhibition. With `CCc1oc2cc(S(=O)(=O)Nc3ccc(S(N)(=O)=O)cc3)ccc2c1C(=O)c1cc(Br)c(O)c(Br)c1` [Compound A, 3-(3,5-dibromo-4-hydroxy-benzoyl)-2-ethyl-benzofuran-6-sulfonic acid (4-sulfamoyl-phenyl)-amide], in experiment [1], the IC50 is […].

In general, Ki refers to a measure of affinity in units of concentration, obtained from inhibition or displacement. Turning to `CC(C)=CCC/C(C)=C/CC/C(C)=C\Cc1c(O)cc(O)c(CC=C(C)C)c1-c1cc2ccc(O)cc2o1` [MB, morusalfuran B], in experiment [2], the inhibitory constant (Ki) came out at 2.84 µM and the “Inhibition Type” value is listed as “mixed-type inhibition; also recorded: mixed type inhibitor”. The IC50 in experiment [3] is 12 ± 0.75 µM.

Turning to `CC(C)=CCCC1(C)C=Cc2c(ccc3cc(-c4cc(O)cc(O)c4CC=C(C)C)oc23)O1` (centres unmarked) [MD2, mulberrofuran D2], in experiment [2], the inhibition constant Ki is 2.63 µM and the “Inhibition Type” value was “non-competitive inhibition; also recorded: non-competitive inhibitor; also recorded: Noncompetitive”. In experiment [3], the 50% inhibitory concentration (IC50) is 3.11 ± 0.1 µM. Further, the “times more potent than compound A” value in experiment [3] (MD2 vs compound A, PTP1B inhibition) is on record as 7 times.

Consider `CC(C)=CCC/C(C)=C/Cc1c(O)ccc2cc(-c3cc(O)cc(O)c3CC=C(C)C)oc12` [MD, mulberrofuran D], for which, in experiment [2], the Ki was 4.79 µM and the “Inhibition Type” value is listed as “mixed-type inhibition; also recorded: mixed type inhibitor”. Besides, the IC50 in experiment [3] was determined as 11.6 ± 0.19 µM.

For the compound `C[C@@]12C=C(c3c(O)cc(-c4cc5ccc(O)cc5o4)cc3O)C[C@@H](C1)c1ccc(O)cc1O2` [MH, mulberrofuran H], the IC50 in experiment [3] amounted to 53.5 ± 12.5 µM.

For `COc1cc(O)cc(-c2cc3ccc(O)c(C/C=C(\C)CCC=C(C)C)c3o2)c1CC=C(C)C` [SA, sanggenofuran A], in experiment [3], the IC50 was 31.9 ± 2.98 µM. Further, the “reduction of activity (SA vs. MD)” value in experiment [3] (replacement of C3′-OH with -OCH3, SA vs. MD) was > 3 times.
